From publication PMC10239758 (European journal of medicinal chemistry, 2023)
Converted amounts (≈) assume the structure as drawn. Read-outs that look alike come from different tables or passages of the source.

Legend:
[1] = tested on: clinically isolated strains of MDR/XDR-TB; experiment: microbe, parasite or virus in culture; assay type: cell-based, Mycobacterium tuberculosis
Vero cells = experiment: Cytotoxicity against Vero cells; assay type: cell-based, African green monkey; settings: Chlorocebus sabaeus, read-out: Vero cells IC50, Vero cells
Mtb V4207 = experiment: microbe, parasite or virus in culture; assay type: cell-based; settings: Mycobacterium tuberculosis, V4207, read-out: Mtb MIC V4207/ DS
[2] = Human liver microsomal stability; settings: human liver microsomes; for Remaining (NCF = 60 min): without the NADPH cofactor
Mtb strain H37Rv = experiment: Microplate Alamar Blue assay; assay type: cell-based, Mycobacterium tuberculosis; settings: MABA, average of three measurements

Structure (SMILES): c1ccc(-c2ccc(-c3ccnc(CN4CCC5(CCCC5)CC4)c3)cc2)cc1 [Compound 62, 8-((4-([1,1'-Biphenyl]-4-yl)pyridin-2-yl)methyl)-8-azaspiro[4.5]decane]
- MIC [1]: 0.0039 to 0.0625 µg/mL
- MIC ([1]; Mycobacterium tuberculosis): 0.004 to 0.063 µg/mL (≈ 0.0105 to 0.165 µM)
- IC50 (Vero cells): ≥ 16 µg/mL
- MIC (Mtb V4207): 0.0039 µg/mL (≈ 0.0102 µM)
- Remaining (NCF = 60 min) [2]: stable

Structure (SMILES): CC(C)c1ccc(-c2cc(CN3CC[Si](C)(C)CC3)ncn2)cc1 [Compound 27, 4-((4,4-Dimethyl-1,4-azasilinan-1-yl)methyl)-6-(4-isopropylphenyl)pyrimidine]
- MIC (Mtb strain H37Rv): 4 to 8 µg/mL

Structure (SMILES): CC(C)c1ccc(-c2cccc(CN3CC[Si](C)(C)CC3)n2)cc1 [Compound 13, 1-((6-(4-Isopropylphenyl)pyridin-2-yl)methyl)-4,4-dimethyl-1,4-azasilinane]
- MIC (Mtb strain H37Rv): 4 to 8 µg/mL

Structure (SMILES): CC(C)c1ccc(-c2cc(CN3CC[Si](C)(C)CC3)ccn2)cc1 [Compound 17, 1-((2-(4-Isopropylphenyl)pyridin-4-yl)methyl)-4,4-dimethyl-1,4-azasilinane]
- MIC (Mtb strain H37Rv): 4 to 8 µg/mL

Structure (SMILES): C[C@]12CC[C@H]3[C@@H](CCC4=CC(=O)CC[C@@]43C)[C@@H]1CC[C@@H]2O [Testosterone, reference compound]
- Remaining (NCF = 60 min) [2]: stable

Structure (SMILES): CC(C)c1ccc(-c2ccnc(CN3CCC4(CCCC4)CC3)c2)cc1 [Compound 37, 8-((4-(4-Isopropylphenyl)pyridin-2-yl)methyl)-8-azaspiro[4.5]decane]
- Remaining (NCF = 60 min) [2]: stable

Structure (SMILES): c1cc(-c2ccc(-c3ccoc3)cc2)cc(CN2CCC3(CCCC3)CC2)n1 [Compound 68, 8-((4-(4-(Furan-3-yl)phenyl)pyridin-2-yl)methyl)-8-azaspiro[4.5]decane]
- Remaining (NCF = 60 min) [2]: stable

Structure (SMILES): O=C(O)Cc1ccccc1Nc1c(Cl)cccc1Cl [Diclofenac, reference compound]
- Remaining (T = 60 min) ([2]; with NADPH, after 60 min): 0.4%
- Remaining (NCF = 60 min) [2]: stable
